Measured values taken from paper PMC12475274, “Harnessing indole scaffolds to identify small-molecule IRE1α inhibitors modulating XBP1 mRNA splicing” (Nature Communications, 2025).
Values joined by “and” are separate entries in the source; they are usually repeats but may differ in a detail not shown here. Equal values may be shown once. Read-outs that look alike come from different tables or passages of the source. Each block holds one compound with its values, some of them ahead of it.

What was measured:
[1] = target: T1, phosphorylated IRE1α (p-IRE1α) (Homo sapiens, UniProt O75460); experiment: FRET-based IRE1α RNase activity assay, phosphorylated IRE1α; format: biochemical; conditions: for IC50: FRET assay; for inhibition(%): p-IRE1a
T1 construct: Human IRE1α kinase and RNase domain (residues 547–977) was subcloned into pLIB plasmid; His tag (with TEV cleavage site) (N, cleaved yes); made in house; host or cells: Sf9 insect cells, baculovirus (Bac-to-Bac)
T1 sequence (O75460 547-977): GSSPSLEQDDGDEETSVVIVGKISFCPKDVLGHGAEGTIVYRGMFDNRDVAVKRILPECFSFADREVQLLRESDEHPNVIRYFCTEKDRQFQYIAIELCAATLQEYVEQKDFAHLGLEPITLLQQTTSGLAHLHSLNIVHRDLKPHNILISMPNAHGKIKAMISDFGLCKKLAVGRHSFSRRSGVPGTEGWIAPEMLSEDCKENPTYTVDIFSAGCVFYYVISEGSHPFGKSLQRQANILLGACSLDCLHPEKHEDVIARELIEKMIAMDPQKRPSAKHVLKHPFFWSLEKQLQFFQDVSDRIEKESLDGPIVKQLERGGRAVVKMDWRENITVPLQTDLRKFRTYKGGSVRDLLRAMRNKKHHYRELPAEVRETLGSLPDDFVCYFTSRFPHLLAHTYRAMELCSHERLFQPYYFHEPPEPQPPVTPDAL
In short: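 Cleavage of a dual-labeled XBP1 RNA (200 nM) was followed kinetically over 1 h at room temperature at 485/535 nm, with initial slopes giving percent inhibition and IC50. Enzyme was 4 nM phosphorylated human IRE1α 547–977 from insect cells, incubated with compound for 30 min before substrate; buffer 20 mM HEPES pH 7.5, KOAc, MgOAc2, DTT, Triton X-100.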

IRE1α = target: T2, IRE1α (Homo sapiens, UniProt O75460); experiment: Differential scanning fluorimetry (DSF), IRE1α; format: binding; conditions: for IRE1a ∆Tm: DSF, individual measurements; for IRE1 ∆Tm(°C): Supplementary Fig. 3d/3e, replicate values
T2 construct: Human IRE1α kinase and RNase domain (residues 547–977) was subcloned into pLIB plasmid; His tag (with TEV cleavage site) (N, cleaved yes); made in house; host or cells: Sf9 insect cells, baculovirus (Bac-to-Bac)
T2 sequence (O75460 547-977): as above
Procedure: (§1) The DSF assay was performed in PBS buffer containing 2 mM DTT, in a total reaction volume of 20 µl with indicated compounds (final 1% DMSO) and the final concentration of 1 µM IRE1α protein and 5× SYPRO Orange fluorescent dye (5000× in DMSO, Sigma S5692). The melting curve was measured at a temperature range from 25 °C to 95 °C and in increments of 1 °C for 30 s using a Bio-Rad CFX96 Real-Time PCR detection system with the FRET scan mode. The melting temperature (Tm) was obtained by fitting the melting curve to Boltzmann sigmoidal in GraphPad Prism and the thermal shift (∆Tm) was calculated by using the equation: ∆Tm = Tm(compound) -Tm(DMSO).

p-IRE1α = target: T3, p-IRE1α (Homo sapiens, UniProt O75460); experiment: Differential scanning fluorimetry (DSF), p-IRE1α; format: binding; conditions: for p-IRE1a ∆Tm: DSF, individual measurements; for p-IRE1a ∆Tm(°C): individual replicate values
T3 construct: Human IRE1α kinase and RNase domain (residues 547–977) was subcloned into pLIB plasmid; His tag (with TEV cleavage site) (N, cleaved yes); made in house; host or cells: Sf9 insect cells, baculovirus (Bac-to-Bac)
T3 sequence (O75460 547-977): as above
Procedure: as §1

dephosphorylated IRE1α = target: T4, dephosphorylated IRE1α (Homo sapiens, UniProt O75460); experiment: Isothermal titration calorimetry (ITC), incl. competitive ITC; format: binding; conditions: for KD (competitive ITC): ND, not detectable
T4 construct: Human IRE1α kinase and RNase domain (residues 547–977) was subcloned into pLIB plasmid; His tag (with TEV cleavage site) (N, cleaved yes); made in house; host or cells: Sf9 insect cells, baculovirus (Bac-to-Bac)
T4 sequence (O75460 547-977): as above
Procedure: The dephosphorylated IRE1α protein was used directly after purification, ITC experiments were carried out at 25 °C using MicroCal PEAQ-ITC system (Malvern) in buffer 25 mM HEPES pH 7.5, 250 mM NaCl, 1 mM TCEP, 5% glycerol, 1% DMSO. The solution was diluted to a final 1% DMSO in the same buffer as for the protein. Protein and compound solution were degassed before loading to the cell and syringe respectively. Unless otherwise noted, 200 μM of compound was loaded into the syringe and 10 μM of IRE1α protein was loaded into the sample cell. For competitive ITC, the protein was incubated with the indicated compound at 25 °C (final 1% DMSO) before loading to the cell. Instrument settings were: reference power 10 μcal/s, feedback high, stir speed 750 rpm, initial delays 60 s, injection spacing 150 s, injection duration 4 s. All experiments were performed with a single 0.4 μL injection followed by 18 (or 15), 2 μL injections. Data were analyzed using MicroCal PEAQ-ITC analysis software. The one set of sites fitting model is used for the calorimetry data analysis, with cell concentration and syringe concentration as the input parameters. For compound IA01, the N was set to 1 to improve the fit.

[2] = RNase activity, mean (± SEM), read-out: p-IRE1α IC50
[3] = source data, unit from Fig. 3, read-out: p-IRE1a IC50, individual replicates (n1-n4)
[4] = titrating 200 μM compound into 10 μM IRE1α, no competitor (DMSO), read-out: KD (ITC)

SMILES: Cc1c(CCC(=O)O)c2cc(Br)ccc2n1C(=O)c1ccccc1 [IA107]
IC50 [1, 2]: 9.31 nM | IC50 ([1]; read-out: p-IRE1α IC50 (RNase activity)): 9 nM | IC50 [1, 3]: 11.1 nM and 10.2 nM and 6.6 nM | stabilization of IRE1α in DSF (IRE1α): concentration-dependently stabilized | IRE1a ∆Tm (IRE1α; compound 25 μM): 4.2925 °C (2×) and 4.2325 °C and 4.2625 °C | IRE1a ∆Tm (IRE1α; compound 50 μM): 5.1825 °C and 5.3725 °C and 5.2525 °C and 5.2825 °C | IRE1a ∆Tm (IRE1α; compound 100 μM): 5.7825 °C and 5.7925 °C (2×) and 5.8625 °C | stabilization of p-IRE1α in DSF (p-IRE1α): stabilized phosphorylated IREα concentration-dependently | p-IRE1a ∆Tm (p-IRE1α; compound 25 μM): 1.94 °C and 2.53 °C and 2.1 °C and 2.61 °C | p-IRE1a ∆Tm (p-IRE1α; compound 50 μM): 3.27 °C and 3.18 °C and 2.63 °C and 3 °C | p-IRE1a ∆Tm (p-IRE1α; compound 100 μM): 3.1 °C and 3.74 °C and 2.72 °C and 2.61 °C | Kd (dephosphorylated IRE1α; IA107 to IRE1α with 5 μM G1749, read-out: KD (competitive ITC)): 2250 nM | KD (competitive ITC) (dephosphorylated IRE1α; IA107 to IRE1α with 50 μM G1749): did not show detectable binding | KD (competitive ITC) (dephosphorylated IRE1α; IA107 to IRE1α with 200 μM G1749): did not show detectable binding | Kd (dephosphorylated IRE1α; [4]): 940 nM | Kd (dephosphorylated IRE1α; titrating 200 μM compound to 20 μM dephosphorylated IRE1α, read-out: KD (ITC)): 1410 nM

IC50 [1, 2]: 82 nM and 80 nM | IC50 [1, 3]: 98.9 nM and 83.6 nM and 62.4 nM | stabilization of IRE1α in DSF (IRE1α): concentration-dependently stabilized | IRE1 ∆Tm(°C) (IRE1α; compound 100 μM): 5.27 °C (2×) and 5.25 °C and 5.36 °C | p-IRE1a ∆Tm(°C) (p-IRE1α; compound 3.125 μM): 0.72 °C and 0.27 °C (2×) and 0.32 °C | Kd (dephosphorylated IRE1α; [4]): 1820 nM
SMILES: Cc1c(CCC(=O)O)c2cc(Cl)ccc2n1C(=O)c1ccccc1 [IA141]
IRE1 ∆Tm(°C) (IRE1α; compound 1.563 μM): 0.63 °C and 0.81 °C and 0.65 °C and 0.58 °C | IRE1 ∆Tm(°C) (IRE1α; compound 3.125 μM): 1.12 °C and 1.18 °C and 0.97 °C and 1.08 °C | IRE1 ∆Tm(°C) (IRE1α; compound 6.25 μM): 1.79 °C and 1.73 °C and 1.77 °C and 1.66 °C | IRE1 ∆Tm(°C) (IRE1α; compound 12.5 μM): 2.82 °C and 2.70 °C and 2.75 °C and 2.68 °C | IRE1 ∆Tm(°C) (IRE1α; compound 25 μM): 3.71 °C and 3.59 °C and 3.83 °C and 3.70 °C | IRE1 ∆Tm(°C) (IRE1α; compound 50 μM): 4.64 °C and 4.50 °C and 4.51 °C and 4.69 °C | p-IRE1a ∆Tm(°C) (p-IRE1α; compound 1.563 μM): 0.12 °C and -0.00583 °C and 0.32 °C and -0.0158 °C | p-IRE1a ∆Tm(°C) (p-IRE1α; compound 6.25 μM): 0.99 °C and 0.72 °C and 0.76 °C and 0.85 °C | p-IRE1a ∆Tm(°C) (p-IRE1α; compound 12.5 μM): 1.57 °C and 1.31 °C and 1.36 °C and 1.19 °C | p-IRE1a ∆Tm(°C) (p-IRE1α; compound 25 μM): 2.22 °C and 2.10 °C and 1.74 °C and 2.25 °C | p-IRE1a ∆Tm(°C) (p-IRE1α; compound 50 μM): 2.87 °C and 2.43 °C and 2.53 °C and 2.76 °C | p-IRE1a ∆Tm(°C) (p-IRE1α; compound 100 μM): 3.32 °C and 3.36 °C and 3.61 °C and 3.33 °C

effect on p-IRE1α RNase activity in the FRET assay [1]: did not inhibit the RNase activity | inhibition(%) ([1]; 50 μM): 0.943% and 1.151% and 1.193% and 2.068%
SMILES: CCOC(=O)CCc1c(C)n(C(=O)c2ccccc2)c2ccc(Br)cc12 [IAPD1]
inhibition(%) ([1]; 0.00254 μM): -4.888% and 2.526% and -4.055% and 4.733% | inhibition(%) ([1]; 16.6667 μM): -1.806% and 4.317% and -3.888% and 0.777%

effect on p-IRE1α RNase activity in the FRET assay [1]: inhibit the p-IRE1α RNase activity | IC50 [1, 2]: 3 nM
SMILES: Cc1ccc2c(NS(=O)(=O)c3ccccc3Cl)cccc2c1Oc1ncccc1-c1ccnc(N[C@H]2CCCNC2)n1 [KIRA8]
